Test results: ChEMBL document CHEMBL4190326, “Novel Gomisin B analogues as potential cytotoxic agents: Design, synthesis, biological evaluation and docking studies” (Eur J Med Chem, 2017)
Active and inactive are the calls of the source. No cut-off for these calls is given here.

What was measured:
[1] = test system: IMR-32; experiment: Cytotoxicity against human IMR32 cells assessed as reduction in cell viability measured after 48 hrs by SRB assay; assay type: functional, cell-based; conditions: IMR-32, 48 h
[2] = test system: HEK293; experiment: Cytotoxicity against HEK293 cells assessed as reduction in cell viability measured after 48 hrs by SRB assay; assay type: cell-based; conditions: Homo sapiens, HEK293, 48 h
[3] = test system: SiHa; experiment: Cytotoxicity against human SiHa cells assessed as reduction in cell viability measured after 48 hrs by SRB assay; assay type: functional, cell-based
[4] = test system: A549; experiment: Cytotoxicity against human A549 cells assessed as reduction in cell viability measured after 48 hrs by SRB assay; assay type: functional, cell-based; conditions: A549, 48 h
[5] = test system: PANC-1; experiment: Cytotoxicity against human PANC1 cells assessed as reduction in cell viability measured after 48 hrs by SRB assay; assay type: functional, cell-based; conditions: PANC-1, 48 h
[6] = Selectivity index, ratio of IC50 for HEK293 cells to IC50 for human DU145 cells; assay type: toxicity; conditions: HEK293 cells versus DU145 cells, read-out: Ratio IC50
[7] = test system: MDA-MB-231; experiment: Cytotoxicity against human MDA-MB-231 cells assessed as reduction in cell viability measured after 48 hrs by SRB assay; assay type: functional, cell-based; conditions: MDA-MB-231, 48 h
[8] = test system: DU-145; experiment: Cytotoxicity against human DU145 cells assessed as reduction in cell viability measured after 48 hrs by SRB assay; assay type: functional, cell-based; conditions: DU-145, 48 h
[9] = test system: HeLa; experiment: Cell cycle arrest in human HeLa cells assessed as G2/M phase accumulation after 24 hrs by propidium iodide staining based flow cytometric analysis (reference value: 29.18%); assay type: functional
[10] = species on record: Bos taurus; experiment: Inhibition of bovine brain tubulin polymerization measured for 1 hr at 1 min interval by fluorescence assay relative to control
[11] = target: T1, Tubulin (Homo sapiens) (UniProt P68371+Q9H4B7+P0DPH7+P68366+Q13509+Q71U36+P04350+Q3ZCM7+P07437+P68363+Q9BQE3+Q6PEY2+Q13885+Q9BVA1+Q9BUF5); experiment: Induction of tubulin polymerization in human HeLa cells assessed as multiple spindle formation after 24 hrs by DAPI staining/confocal microscopy-based immunofluorescence analysis; assay type: cell-based
[12] = target: T1, Tubulin (Homo sapiens); experiment: Induction of tubulin polymerization in human HeLa cells assessed as increase in insoluble tubulin fraction after 24 hrs by Western blot analysis; assay type: cell-based
[13] = test system: HeLa; experiment: Cell cycle arrest in human HeLa cells assessed as G2/M phase accumulation at 5 uM after 24 hrs by propidium iodide staining based flow cytometric analysis (reference value: 29.18%); assay type: functional
[14] = test system: HeLa; experiment: Cell cycle arrest in human HeLa cells assessed as G2/M phase accumulation after 24 hrs by propidium iodide staining based flow cytometric analysis; assay type: functional
[15] = test system: HeLa; experiment: Cell cycle arrest in human HeLa cells assessed as G2/M phase accumulation at 10 uM after 24 hrs by propidium iodide staining based flow cytometric analysis (reference value: 29.18%); assay type: functional
[16] = species on record: Bos taurus; experiment: Induction of bovine brain tubulin polymerization at 5 uM measured for 1 hr at 1 min interval by fluorescence assay relative to control
[17] = target: T1, Tubulin (Homo sapiens); experiment: Induction of tubulin polymerization in human HeLa cells assessed as chromosomal alignment on metaphase plate at 10 uM after 24 hrs by DAPI staining/confocal microscopy-based immunofluorescence analysis; assay type: cell-based
[18] = test system: HeLa; experiment: Cell cycle arrest in human HeLa cells assessed as G2/M phase accumulation at 20 uM after 24 hrs by propidium iodide staining based flow cytometric analysis (reference value: 29.18%); assay type: functional

| Compound | IC50 [1] [µM] | IC50 [2] [µM] | IC50 [3] [µM] | IC50 [4] [µM] | IC50 [5] [µM] | selectivity ratio [6] | IC50 [7] [µM] | IC50 [8] [µM] | Activity [9] [%] | fold change (FC) [10] | Activity [11] | Activity [12] | Activity [13] [%] | Activity [14] | Activity [15] [%] | fold change (FC) [16] | Activity [17] | Activity [18] [%] |
| --- | --- | --- | --- | --- | --- | --- | --- | --- | --- | --- | --- | --- | --- | --- | --- | --- | --- | --- |
| COc1cc2c(c(OC)c1OC)-c1c(cc3c(c1OC)OCO3)C[C@H](C)[C@@](C)(O)[C@H]2O | 86.7 | > 100 | 68.3 | 94.2 | 78.4 | 1.14 | 81.2 | 87.4 |  |  |  |  |  |  |  |  |  |  |
| COc1cc2c(c(OC)c1OC)-c1c(cc3c(c1OC)OCO3)C[C@H](C)[C@@](C)(O)/C2=N/O | 81.4 | > 100 | 83.4 | 96.4 | 84.9 | 1.05 | 79.5 | 94.7 |  |  |  |  |  |  |  |  |  |  |
| COc1ccc(OC)c(-n2cc(CO/N=C3\c4cc(OC)c(OC)c(OC)c4-c4c(cc5c(c4OC)OCO5)C[C@H](C)[C@@]3(C)O)nn2)c1 | 76.5 | > 100 | 74.3 | 91.8 | 81.2 | 1.1 | 73.8 | 86.7 |  |  |  |  |  |  |  |  |  |  |
| COc1cc2c(c(OC)c1OC)-c1c(cc3c(c1OC)OCO3)C[C@H](C)[C@@](C)(O)/C2=N/OCc1cn(-c2ccccc2C#N)nn1 | 79.8 | > 100 | 86.4 | 94.2 | 87.3 | 1.1 | 71.1 | 92.7 |  |  |  |  |  |  |  |  |  |  |
| COc1cc2c(c(OC)c1OC)-c1c(cc3c(c1OC)OCO3)C[C@H](C)[C@@](C)(O)/C2=N/OCc1cn(-c2cccc(C)c2Cl)nn1 | 78.3 | > 100 | 69.2 | 85.6 | 81.9 | 1.1 | 73.8 | 88.6 |  |  |  |  |  |  |  |  |  |  |
| COc1cc2c(c(OC)c1OC)-c1c(cc3c(c1OC)OCO3)C[C@H](C)[C@@](C)(O)/C2=N/OCc1cn(CC(=O)Nc2ccccc2)nn1 | 86.3 | > 100 | 88.6 | 93.7 | 91.1 | 1.1 | 79.8 | 91.5 |  |  |  |  |  |  |  |  |  |  |
| COc1cc2c(c(OC)c1OC)-c1c(cc3c(c1OC)OCO3)C[C@H](C)[C@@](C)(O)/C2=N/OCc1cn(-c2cc(C)cc(C)c2)nn1 | 79.8 | > 100 | 85.1 | 91.7 | 89.3 | 1.1 | 81.4 | 90.6 |  |  |  |  |  |  |  |  |  |  |
| COc1cc2c(c(OC)c1OC)-c1c(cc3c(c1OC)OCO3)C[C@H](C)[C@@](C)(O)/C2=N/OCc1cn(-c2ccc(C(C)=O)cc2)nn1 | 86.4 | > 100 | 71.1 | 95.7 | 80.3 | 1.08 | 70.8 | 92.4 |  |  |  |  |  |  |  |  |  |  |
| COc1cc2c(c(OC)c1OC)-c1c(cc3c(c1OC)OCO3)C[C@H](C)[C@@](C)(O)/C2=N/OCc1cn(-c2ccc(I)cc2)nn1 | 89.7 | > 100 | 76.4 | 90.8 | 83.4 | 1.1 | 76.8 | 89.4 |  |  |  |  |  |  |  |  |  |  |
| C#CCO/N=C1\c2cc(OC)c(OC)c(OC)c2-c2c(cc3c(c2OC)OCO3)C[C@H](C)[C@@]1(C)O | 82.6 | > 100 | 96.1 | 98.1 | 97.2 | 1.01 | 80.4 | 99.5 |  |  |  |  |  |  |  |  |  |  |
| COC(=O)Nc1nc2cc(C(=O)c3cccs3)ccc2[nH]1 [NOCODAZOLE] |  |  |  |  |  |  |  |  | 91.7 |  |  |  |  |  |  |  |  |  |
| COc1ccc(/C=C\c2cc(OC)c(OC)c(OC)c2)cc1O |  |  |  |  |  |  |  |  |  | 0.15 |  |  |  |  |  |  |  |  |
| COc1cccc(-n2cc(CO/N=C3\c4cc(OC)c(OC)c(OC)c4-c4c(cc5c(c4OC)OCO5)C[C@H](C)[C@@]3(C)O)nn2)c1 | 77.4 | > 100 | 92.1 | 96.4 | 98 | 1.1 | 82.1 | 95.8 |  |  |  |  |  |  |  |  |  |  |
| COc1cc2c(c(OC)c1OC)-c1c(cc3c(c1OC)OCO3)C[C@H](C)[C@@](C)(O)/C2=N/OCc1cn(-c2cccc([N+](=O)[O-])c2)nn1 | 86.1 | > 100 | 96.5 | 96.1 | 95.7 | 1 | 83.7 | 98.4 |  |  |  |  |  |  |  |  |  |  |
| COc1cc2c(c(OC)c1OC)-c1c(cc3c(c1OC)OCO3)C[C@H](C)[C@@](C)(O)/C2=N/OCc1cn(-c2ccc(Cl)cc2)nn1 | 83.9 | > 100 | 98.5 | > 100 | 92.7 | 1.01 | 82.6 | 99.4 |  |  |  |  |  |  |  |  |  |  |
| CC(=O)O[C@H]1C(=O)[C@@]2(C)[C@H]([C@H](OC(=O)c3ccccc3)[C@]3(O)C[C@H](OC(=O)[C@H](O)[C@@H](NC(=O)c4ccccc4)c4ccccc4)C(C)=C1C3(C)C)[C@]1(OC(C)=O)CO[C@@H]1C[C@@H]2O |  |  |  |  |  |  |  |  |  | 2.68 | Active | Active |  |  |  |  |  |  |
| COc1cc2c(c(OC)c1OC)-c1c(cc3c(c1OC)OCO3)C[C@H](C)[C@@](C)(O)/C2=N/OCc1cn(-c2cc([N+](=O)[O-])ccc2Cl)nn1 | 86.4 | > 100 | 94.5 | 96.4 | 93.4 | 1.1 | 85.7 | 95.1 |  |  |  |  |  |  |  |  |  |  |
| CCc1ccc(-n2cc(CO/N=C3\c4cc(OC)c(OC)c(OC)c4-c4c(cc5c(c4OC)OCO5)C[C@H](C)[C@@]3(C)O)nn2)cc1 | 75.8 | > 100 | 89.7 | 93.8 | 83.4 | 1.1 | 79.1 | 91.7 |  |  |  |  |  |  |  |  |  |  |
| COc1cc2c(c(OC)c1OC)-c1c(cc3c(c1OC)OCO3)C[C@H](C)[C@@](C)(O)/C2=N/OCc1cn(CC(=O)Nc2ccc(I)cc2Cl)nn1 | 81.6 | > 100 | 86.4 | 97.5 | 92.1 | 1.01 | 82.9 | 98.7 |  |  |  |  |  |  |  |  |  |  |
| COc1cc(OC)c(-n2cc(CO/N=C3\c4cc(OC)c(OC)c(OC)c4-c4c(cc5c(c4OC)OCO5)C[C@H](C)[C@@]3(C)O)nn2)cc1OC | 76.8 | > 100 | 69.5 | 87.5 | 76.8 | 1.1 | 72.8 | 86.2 |  |  |  |  |  |  |  |  |  |  |
| COc1cc2c(c(OC)c1OC)-c1c(cc3c(c1OC)OCO3)C[C@H](C)[C@@](C)(O)/C2=N/OCc1cn(-c2ccc([N+](=O)[O-])c(Cl)c2)nn1 | 8.6 | 50.2 |  | 7.9 |  |  | 11.4 | 12.8 |  |  |  | Dose-dependent effect | 37.11 | Dose-dependent effect | 43.06 | 1.25 | Active | 46.83 |
| C/C=C(/C)C(=O)O[C@H]1c2cc(OC)c(OC)c(OC)c2-c2c(cc3c(c2OC)OCO3)C[C@H](C)[C@@]1(C)O [ARISANSCHININ N] | 66.8 | 52 | 51.2 | 55.1 | 53.6 | 1.6 | 60.5 | 64.7 |  |  |  |  |  |  |  |  |  |  |
| COc1cc2c(c(OC)c1OC)-c1c(cc3c(c1OC)OCO3)C[C@H](C)[C@@](C)(O)C2=O | 72.3 | > 100 | 75.1 | 94.8 | 88.6 | 1.2 | 73.1 | 83.1 |  |  |  |  |  |  |  |  |  |  |
| COc1cc2c(c(OC)c1OC)-c1c(cc3c(c1OC)OCO3)C[C@H](C)[C@@](C)(O)/C2=N/OCc1cn(CC(=O)Nc2ccc(C)cc2)nn1 | 79.2 | > 100 | 64.9 | 84.6 | 71.6 | 1.15 | 72.6 | 86.4 |  |  |  |  |  |  |  |  |  |  |
| COc1cccc2c1C(=O)c1c(O)c3c(c(O)c1C2=O)C[C@@](O)(C(=O)CO)C[C@@H]3O[C@H]1C[C@H](N)[C@H](O)[C@H](C)O1 [DOXORUBICIN] | 2.3 | 10 | 1.5 | 1.6 | 1.9 |  |  | 2.4 |  |  |  |  |  |  |  |  |  |  |
| COc1cc(-n2cc(CO/N=C3\c4cc(OC)c(OC)c(OC)c4-c4c(cc5c(c4OC)OCO5)C[C@H](C)[C@@]3(C)O)nn2)cc(OC)c1Cl | 79.1 | > 100 | 83.2 | 94.2 | 86.4 | 1.1 | 73.2 | 94.7 |  |  |  |  |  |  |  |  |  |  |
